Measured values taken from patent US9376442B2, “Methylpyrrolopyrimidinecarboxamides” (Takeda GmbH, priority 2009, dated 2016).

Key:
[1] = molecular target: T1, PDE4B1 (Homo sapiens, UniProt Q07343); experiment: Inhibition of type 4 phosphodiesterase (PDE4) activity, modified SPA test with recombinant PDE4B1 expressed in SF21 insect cells; assay type: biochemical; conditions: recombinant PDE4B1, 0.5 μM cAMP, read-out: PDE4B1 inhibitory values [measured as −log IC50 (mol/l)] (converted)
T1 construct: made in house; host or cells: SF21 insect cells (baculovirus; pCRBac vector), 1000 x g supernatant of homogenate
Procedure: Method for Measuring Inhibition of the Type 4 Phosphodiesterase (PDE4) Activity:
The PDE4B1 (GB no. L20966) was a gift of Prof. M. Conti (Stanford University, USA). It was amplified from the original plasmid (pCMV5) via PCR with primers Rb18 (5′-[…]-3′) and Rb10 (5′-[…]-3′) and cloned into the pCRBac vector (Invitrogen, Groningen, NL).
The recombinant baculovirus was prepared by means of homologous recombination in SF9 insect cells. The expression plasmids were cotransfected with Baculo-Gold DNA (Pharmingen, Hamburg) using a standard protocol (Pharmingen, Hamburg). Wt virus-free recombinant virus supernatants were selected using plaque assay methods. After that, high-titre virus supernatants were prepared by amplifying 3 times. PDE4B1 was expressed in SF21 cells by infecting 2×10^6 cells/ml with an MOI (multiplicity of infection) between 1 and 10 in the serum-free medium Insect Express Sf9-S2 (PAA, Pasching, Austria). The cells were cultured at 28° C. for 48-72 hours, after which they were pelleted for 5-10 min at 1000×g and 4° C.
The SF21 insect cells were resuspended, at a concentration of approx. 10^7 cells/ml, in ice-cold (4° C.) homogenization buffer (20 mM Tris, pH 8.2, containing the following additions: 140 mM NaCl, 3.8 mM KCl, 1 mM EGTA, 1 mM MgCl2, 10 mM (3-mercaptoethanol, 2 mM benzamidine, 0.4 mM Pefablock, 10 μM leupeptin, 10 μM pepstatin A, 5 μM trypsin inhibitor) and disrupted by ultrasonication. The homogenate was then centrifuged for 10 min at 1000×g and the supernatant was stored at −80° C. until subsequent use (see below). The protein content was determined by the Bradford method (BioRad, Munich) using BSA as the standard.
PDE4B1 activity was inhibited by the compounds according to the present subject matter in a modified SPA (scintillation proximity assay) test, supplied by Amersham Biosciences (see procedural instructions “phosphodiesterase [3H]cAMP SPA enzyme assay, code TRKQ 7090”), carried out in 96-well microtitre plates (MTP's). The test volume is 100 μl and contains 20 mM Tris buffer (pH 7.4), 0.1 mg/ml of BSA, 5 mM Mg^2+, 0.5 μM cAMP (including about 50,000 cpm of [3H]cAMP), 1 μl of the respective substance dilution in DMSO and sufficient recombinant PDE (1000×g supernatant, see above) to ensure that 10-20% of the cAMP is converted under the said experimental conditions. […] After a preincubation of 5 min at 37° C., the reaction is started by adding the substrate (cAMP) and the assays are incubated for a further 15 min; after that, they are stopped by adding SPA beads (50 μl). In accordance with the manufacturer's instructions, the SPA beads had previously been resuspended in water, but were then diluted 1:3 (v/v) in water; the diluted solution also contains 3 mM IBMX to ensure a complete PDE activity stop. After the beads have been sedimented (>30 min), the MTP's are analyzed in commercially available luminescence detection devices. The corresponding IC50 values of the compounds for the inhibition of PDE4B1 activity are determined from the concentration-effect curves by means of non-linear regression.

[2] = molecular target: T2, PDE5A1 (Homo sapiens, UniProt O76074); experiment: Inhibition of type 5 phosphodiesterase (PDE5) activity, modified SPA test with human platelet lysate; assay type: biochemical; conditions: 0.5 μM cGMP, read-out: PDE5A1 inhibitory values [measured as −log IC50 (mol/l)] (converted)
T2 construct: from tissue; host or cells: human platelets from fresh donor blood (10,000 x g supernatant of sonicated lysate)
In short: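 Scintillation proximity assay with [3H]cGMP tracer at 0.5 μM total cGMP, stopped after 15 min with beads containing IBMX. PDE3 and PDE2 activities suppressed with motapizone (1 μM) and a PDE2 inhibitor (10 nM). Human platelet supernatant served as the enzyme, with compound preincubated 5 min at 37° C; IC50 values from concentration-effect curves.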

T1 sequence (Q07343 whole entry): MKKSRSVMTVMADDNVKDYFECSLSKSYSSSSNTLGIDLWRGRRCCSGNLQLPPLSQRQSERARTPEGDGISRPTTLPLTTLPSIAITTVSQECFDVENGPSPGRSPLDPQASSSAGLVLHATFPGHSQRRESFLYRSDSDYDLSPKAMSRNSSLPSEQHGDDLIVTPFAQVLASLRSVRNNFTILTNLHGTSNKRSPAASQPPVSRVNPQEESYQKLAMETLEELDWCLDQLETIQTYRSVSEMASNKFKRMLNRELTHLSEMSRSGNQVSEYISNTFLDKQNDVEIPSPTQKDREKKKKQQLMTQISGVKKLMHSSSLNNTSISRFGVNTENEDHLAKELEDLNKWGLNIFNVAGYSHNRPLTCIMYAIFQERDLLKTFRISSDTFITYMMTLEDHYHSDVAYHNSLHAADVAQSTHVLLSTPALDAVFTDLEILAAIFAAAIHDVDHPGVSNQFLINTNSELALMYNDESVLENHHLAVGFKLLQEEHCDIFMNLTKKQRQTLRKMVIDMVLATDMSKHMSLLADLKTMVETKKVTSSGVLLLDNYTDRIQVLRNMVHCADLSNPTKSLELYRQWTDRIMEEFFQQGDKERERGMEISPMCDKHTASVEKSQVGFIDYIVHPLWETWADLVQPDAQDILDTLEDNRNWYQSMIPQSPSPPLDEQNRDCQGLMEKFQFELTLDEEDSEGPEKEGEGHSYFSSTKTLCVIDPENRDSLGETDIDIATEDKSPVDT

IC50 [1] [nM]	IC50 [2] [nM]	SMILES
100 to 1000	1 to 10	COCC(=O)N1CCC(NC(=O)c2c(C)[nH]c3c(-c4cc(F)ccc4OCC4CC4)ncnc23)CC1 [Example E39, 4-(2-Cyclopropylmethoxy-5-fluoro-phenyl)-6-methyl-5H-pyrrolo[3,2-d]pyrimidine-7-carboxylic acid [1-(2-methoxy-acetyl)-piperidin-4-yl]-amide]
100 to 1000	1 to 10	CCc1ccc(OCC2CC2)c(-c2ncnc3c(C(=O)N[C@@H]4CN(C(=O)CO)C[C@H]4O)c(C)[nH]c23)c1 (relative stereo) [Example F97, 4-[2-(Cyclopropylmethoxy)-5-ethylphenyl]-N-[(3R*,4R*)-4-hydroxy-1-(hydroxyacetyl)pyrrolidin-3-yl]-6-methyl-5H-pyrrolo[3,2-d]pyrimidine-7-carboxamide]
< 100	1 to 10	CC(=O)N1C[C@@H](NC(=O)c2c(C)[nH]c3c(-c4cc(C(F)F)ccc4OCC4CC4)ncnc23)C[C@@H]1C [Example P24, N-[(3S,5S)-1-Acetyl-5-methylpyrrolidin-3-yl]-4-[2-(cyclopropylmethoxy)-5-(difluoromethyl)phenyl]-6-methyl-5H-pyrrolo[3,2-d]pyrimidine-7-carboxamide]
100 to 1000	< 1	CCC(=O)N1CCC(NC(=O)c2c(C)[nH]c3c(-c4cc(OC)ccc4OCC4CC4)ncnc23)CC1 [Example E67, 4-[2-(Cyclopropylmethoxy)-5-methoxyphenyl]-6-methyl-N-(1-propionylpiperidin-4-yl)-5H-pyrrolo[3,2-d]pyrimidine-7-carboxamide]
100 to 1000	< 1	CCc1ccc(OCC2CC2)c(-c2ncnc3c(C(=O)NC4CCN(C(=O)COC)CC4)c(C)[nH]c23)c1 [Example E147, 4-[2-(Cyclopropylmethoxy)-5-ethylphenyl]-N-[1-(methoxyacetyl)piperidin-4-yl]-6-methyl-5H-pyrrolo[3,2-d]pyrimidine-7-carboxamide]
< 100	< 1	CCC(=O)N1CCC(NC(=O)c2c(C)[nH]c3c(-c4cc(C)ccc4OCC4CC4)ncnc23)CC1 [Example E82, 4-[2-(Cyclopropylmethoxy)-5-methylphenyl]-6-methyl-N-(1-propanoylpiperidin-4-yl)-5H-pyrrolo[3,2-d]pyrimidine-7-carboxamide]
100 to 1000	< 1	CC(=O)N1CCC(NC(=O)c2c(C)[nH]c3c(-c4cc(C)ccc4OCC4CC4)nc(C)nc23)CC1 [Example E169, N-(1-Acetylpiperidin-4-yl)-4-[2-(cyclopropylmethoxy)-5-methylphenyl]-2,6-dimethyl-5H-pyrrolo[3,2-d]pyrimidine-7-carboxamide]
< 100	1 to 10	COCC(=O)N1CCC(NC(=O)c2c(C)[nH]c3c(-c4cc(C(F)F)ccc4OCC4CC4)ncnc23)CC1 [Example P3, 4-[2-(Cyclopropylmethoxy)-5-(difluoromethyl)phenyl]-N-[1-(methoxyacetyl)piperidin-4-yl]-6-methyl-5H-pyrrolo[3,2-d]pyrimidine-7-carboxamide]
< 100	< 1	CCc1ccc(OCC2CC2)c(-c2ncnc3c(C(=O)N[C@H]4CC[C@@H](NC(=O)CO)CC4)c(C)[nH]c23)c1 [Example F95, 4-[2-(Cyclopropylmethoxy)-5-ethylphenyl]-N-{cis-4-[(hydroxyacetyl)amino]cyclohexyl}-6-methyl-5H-pyrrolo[3,2-d]pyrimidine-7-carboxamide]
100 to 1000	< 1	COc1ccc(OCC2CC2)c(-c2ncnc3c(C(=O)NC4CCN(C(=O)CO)CC4)c(C)[nH]c23)c1 [Example F41, 4-[2-(Cyclopropylmethoxy)-5-methoxyphenyl]-N-(1-glycoloylpiperidin-4-yl)-6-methyl-5H-pyrrolo[3,2-d]pyrimidine-7-carboxamide]
100 to 1000	< 1	COc1ccc(OCC2CC2)c(-c2ncnc3c(C(=O)NC4CCC(NC(=O)C(C)O)CC4)c(C)[nH]c23)c1 (stereo not drawn) [Example F44, 4-[2-(Cyclopropylmethoxy)-5-methoxyphenyl]-N-(trans-4-{[(25)-2-hydroxypropanoyl]amino}cyclohexyl)-6-methyl-5H-pyrrolo[3,2-d]pyrimidine-7-carboxamide]
< 100	< 1	Cc1ccc(OCC2CC2)c(-c2ncnc3c(C(=O)N[C@H]4CC[C@@H](NC(=O)CO)CC4)c(C)[nH]c23)c1 [Example F55, 4-[2-(Cyclopropylmethoxy)-5-methylphenyl]-N-{cis-4-[(hydroxyacetyl)amino]cyclohexyl}-6-methyl-5H-pyrrolo[3,2-d]pyrimidine-7-carboxamide]
100 to 1000	< 1	Cc1[nH]c2c(-c3cc(C(C)C)ccc3OCC3CC3)ncnc2c1C(=O)NC1CCN(C(=O)[C@H](C)O)CC1 [Example F99, 4-[2-(Cyclopropylmethoxy)-5-(propan-2-yl)phenyl]-N-{1-[(2S)-2-hydroxypropanoyl]piperidin-4-yl}-6-methyl-5H-pyrrolo[3,2-d]pyrimidine-7-carboxamide]
100 to 1000	< 1	COc1ccc(OCC2CC2)c(-c2ncnc3c(C(=O)N[C@H]4CC[C@H](NC(C)=O)CC4)c(C)[nH]c23)c1 [Example E69, N-(trans-4-acetamidocyclohexyl)-4-[2-(cyclopropylmethoxy)-5-methoxyphenyl]-6-methyl-5H-pyrrolo[3,2-d]pyrimidine-7-carboxamide]
< 100	< 1	CCC(=O)N[C@H]1CC[C@H](NC(=O)c2c(C)[nH]c3c(-c4cc(C(F)F)ccc4OCC4CC4)ncnc23)[C@@H](C)C1 (relative stereo) [Example P140, 4-[2-(Cyclopropylmethoxy)-5-(difluoromethyl)phenyl]-6-methyl-N-[(1S*,2S*,4S*)-2-methyl-4-(propanoylamino)cyclohexyl]-5H-pyrrolo[3,2-d]pyrimidine-7-carboxamide]
< 100	< 1	CC(=O)N[C@H]1CC[C@H](NC(=O)c2c(C)[nH]c3c(-c4cc(C(F)F)ccc4OCC4CC4)ncnc23)[C@@H](C)C1 (relative stereo) [Example P139, N-[(1S*,2S*,4S*)-4-(Acetylamino)-2-methylcyclohexyl]-4-[2-(cyclopropylmethoxy)-5-(difluoromethyl)phenyl]-6-methyl-5H-pyrrolo[3,2-d]pyrimidine-7-carboxamide]
< 100	< 1	CCC(=O)N[C@H]1CC[C@@H](NC(=O)c2c(C)[nH]c3c(-c4cc(C)ccc4OCC4CC4)ncnc23)CC1 [Example E88, 4-[2-(Cyclopropylmethoxy)-5-methylphenyl]-6-methyl-N-[cis-4-(propanoylamino)cyclohexyl]-5H-pyrrolo[3,2-d]pyrimidine-7-carboxamide]
< 100	< 1	Cc1ccc(OCC2CC2)c(-c2ncnc3c(C(=O)N[C@H]4CC[C@H](NC(=O)CO)CC4)c(C)[nH]c23)c1 [Example F53, 4-[2-(Cyclopropylmethoxy)-5-methylphenyl]-N-{trans-4-[(hydroxyacetyl)amino]cyclohexyl}-6-methyl-5H-pyrrolo[3,2-d]pyrimidine-7-carboxamide]
< 100	< 1	CC(=O)N1CCC(NC(=O)c2c(C)[nH]c3c(-c4cc(C(F)F)ccc4OCC4CC4)ncnc23)CC1 [Example P1, N-(1-Acetylpiperidin-4-yl)-4-[2-(cyclopropylmethoxy)-5-(difluoromethyl)phenyl]-6-methyl-5H-pyrrolo[3,2-d]pyrimidine-7-carboxamide]
